Results published in US10329294B2, “Pyrazolopyrimidine inhibitors of IRAK4 activity” (MERCK SHARP & DOHME CORP., priority 2015, dated 2019).
Counter-ions that a name gives are not always drawn.

biological target: IRAK4 (Homo sapiens (Human), UniProt Q9NWZ3); experiment: IRAK4 Kinase Assay; assay type: biochemical; settings: IMAP fluorescence polarization, 0.5 nM GST tagged IRAK4, 100 μM ATP, 30 minutes at 25° C.; read-out: IRAK4 IC50
Sequence (Q9NWZ3 whole entry): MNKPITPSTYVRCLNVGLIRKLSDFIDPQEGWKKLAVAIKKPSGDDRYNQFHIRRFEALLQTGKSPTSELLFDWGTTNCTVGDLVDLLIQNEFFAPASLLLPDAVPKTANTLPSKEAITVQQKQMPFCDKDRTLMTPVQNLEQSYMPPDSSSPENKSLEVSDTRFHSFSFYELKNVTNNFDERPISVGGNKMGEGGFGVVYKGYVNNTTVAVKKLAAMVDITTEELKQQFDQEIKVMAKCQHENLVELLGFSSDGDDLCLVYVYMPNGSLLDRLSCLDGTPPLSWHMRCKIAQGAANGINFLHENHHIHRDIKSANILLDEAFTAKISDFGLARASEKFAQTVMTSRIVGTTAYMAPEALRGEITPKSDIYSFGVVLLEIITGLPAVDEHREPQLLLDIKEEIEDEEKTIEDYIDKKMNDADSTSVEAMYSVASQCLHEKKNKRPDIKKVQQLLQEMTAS

IC50 [µM] | Structure (SMILES)
0.002 | N#Cc1cscc1NC(=O)c1cnn2ccc(N[C@@H]3CCCC[C@@H]3N)nc12 [Example 39, 5-{[(1R,2S)-2-aminocyclohexyl]amino}-N-(4-cyanothiophen-3-yl)pyrazolo[1,5-a]pyrimidine-3-carboxamide trifluoroacetate]
0.124 | N[C@@H]1[C@H](Nc2ccn3ncc(C(=O)Nc4cscc4C(F)F)c3n2)CCCC1(F)F [Example 121, 5-{[(1R,2R)-2-amino-3,3-difluorocyclohexyl]amino}-N-[4-(difluoromethyl)thiophen-3-yl]pyrazolo[1,5-a]pyrimidine-3-carboxamide trifluoroacetate]
0.001 | CC(C)(C)n1cc(NC(=O)c2cnn3ccc(N[C@@H]4CCCC[C@@H]4N)nc23)c(C(F)(F)F)n1 [Example 294, 5-{[(1R,2S)-2-aminocyclohexyl]amino}-N-[1-tert-butyl-3-(trifluoromethyl)-1H-pyrazol-4-yl]pyrazolo[1,5-a]pyrimidine-3-carboxamide trifluoroacetate]
0.119 | Cn1cc(NC(=O)c2cnn3ccc(N4CCCNCC4)nc23)c(C#N)n1 [Example 125, N-(3-cyano-1-methyl-1H-pyrazol-4-yl)-5-(1,4-diazepan-1-yl)pyrazolo[1,5-a]pyrimidine-3-carboxamide trifluoroacetate]
0.328 | N[C@@H]1[C@H](Nc2ccn3ncc(C(=O)Nc4cn(C(F)F)nc4C(F)(F)F)c3n2)CCCC1(F)F [Example 71, 5-{[(1R,2R)-2-amino-3,3-difluorocyclohexyl]amino}-N-[1-(difluoromethyl)-3-(trifluoromethyl)-1H-pyrazol-4-yl]pyrazolo[1,5-a]pyrimidine-3-carboxamide trifluoroacetate]
0.01 | N#Cc1ccccc1NC(=O)c1cnn2ccc(N[C@@H]3CCCNC3)nc12 [Example 270, N-(2-cyanophenyl)-5-[(3R)-piperidin-3-ylamino]pyrazolo[1,5-a]pyrimidine-3-carboxamide trifluoroacetate]
0.403 | O=C(Nc1ccsc1Cl)c1cnn2ccc(N3CCCNCC3)nc12 [Example 117, N-(2-chlorothiophen-3-yl)-5-(1,4-diazepan-1-yl)pyrazolo[1,5-a]pyrimidine-3-carboxamide trifluoroacetate]
1.36 | N#Cc1ccccc1NC(=O)c1cnn2ccc(N3CCCNCC3)nc12 [Example 273, N-(2-cyanophenyl)-5-(1,4-diazepan-1-yl)pyrazolo[1,5-a]pyrimidine-3-carboxamide trifluoroacetate]
0.032 | O=C(Nc1cn(C(F)F)nc1C(F)(F)F)c1cnn2ccc(N3CCNCC4(CC4)C3)nc12 [Example 68, 5-(5,8-diazaspiro[2.6]non-5-yl)-N-[1-(difluoromethyl)-3-(trifluoromethyl)-1H-pyrazol-4-yl]pyrazolo[1,5-a]pyrimidine-3-carboxamide trifluoroacetate]
1.15 | N[C@@H]1[C@H](Nc2ccn3ncc(C(=O)Nc4cscc4Br)c3n2)CCCC1(F)F [Example 122, 5-{[(1R,2R)-2-amino-3,3-difluorocyclohexyl]amino}-N-(4-bromothiophen-3-yl)pyrazolo[1,5-a]pyrimidine-3-carboxamide trifluoroacetate]
0.016 | N[C@H]1CCCC[C@H]1Nc1ccn2ncc(C(=O)Nc3ccccc3C(F)(F)F)c2n1 [Example 38, 5-{[(1R,2S)-2-aminocyclohexyl]amino}-N-[2-(trifluoromethyl)phenyl] pyrazolo[1,5-a]pyrimidine-3-carboxamide trifluoroacetate]

Continued, compound first:

Structure (SMILES) | IC50 [µM]
Cn1cc(NC(=O)c2cnn3ccc(N4C[C@@H]5CNC[C@H]4C5)nc23)c(C(F)(F)F)n1 (single isomer, unassigned) [Example 83, 5-[(1S,5R)- or (1R,5S)-3,6-diazabicyclo[3.2.1]oct-6-yl]-N-[1-methyl-3-(trifluoromethyl)-1H-pyrazol-4-yl]pyrazolo[1,5-a]pyrimidine-3-carboxamide] | 0.033
Cn1cc(NC(=O)c2cnn3ccc(N4CC5CNC(C5)C4)nc23)c(C(F)F)n1 (stereo not drawn) [Example 182, 5-[(3,6-diazabicyclo[3.2.1]oct-3-yl]-N-[3-(difluoromethyl)-1-methyl-1H-pyrazol-4-yl]pyrazolo[1,5-a]pyrimidine-3-carboxamide trifluoroacetate] | 0.014
Cn1cc(NC(=O)c2cnn3ccc(N[C@H]4CNCC[C@H]4F)nc23)c(C(F)(F)F)n1 (single isomer, unassigned) [Example 231, 5-{[(3R,4S)- or (3S,4R)-4-fluoropiperidin-3-yl]amino}-N-[1-methyl-3-(trifluoromethyl)-1H-pyrazol-4-yl]pyrazolo[1,5-a]pyrimidine-3-carboxamide] | 0.047
O=C(Nc1cscc1C(F)F)c1cnn2ccc(N3C[C@H]4CC[C@@H]3CN4)nc12 (single isomer, unassigned) [Example 155, 5-[(1S,4S)- or (1R,4R)-2,5-diazabicyclo[2.2.2]oct-2-yl]-N-[4-(difluoromethyl)thiophen-3-yl]pyrazolo[1,5-a]pyrimidine-3-carboxamide trifluoroacetate] | 0.032
N[C@H]1CCCC[C@H]1Nc1ccn2ncc(C(=O)Nc3ccncc3C(F)(F)F)c2n1 [Example 31, 5-{[(1R,2S)-2-aminocyclohexyl]amino}-N-[3-(trifluoromethyl)pyridin-4-yl]pyrazolo[1,5-a]pyrimidine-3-carboxamide formate] | 0.004
N[C@H]1CCCC[C@H]1Nc1ccn2ncc(C(=O)Nc3ccsc3C(F)(F)F)c2n1 [Example 144, 5-{[(1R,2S)-2-aminocyclohexyl]amino}-N-[2-(trifluoromethyl)thiophen-3-yl]pyrazolo[1,5-a]pyrimidine-3-carboxamide trifluoroacetate] | 0.007
Cn1cc(NC(=O)c2cnn3ccc(N[C@H]4CNC[C@H](F)C4)nc23)c(C(F)(F)F)n1 [Example 260, 5-{[(3R,5R)-5-fluoropiperidin-3-yl]amino}-N-[1-methyl-3-(trifluoromethyl)-1H-pyrazol-4-yl]pyrazolo[1,5-a]pyrimidine-3-carboxamide] | 0.004
